Measurements as given in BigSolDB 2.1.

CSCCC(NC(C)=O)C(=O)O (racemic)
solubility (mole fraction)
Settings | 283.15 K | 293.15 K | 303.15 K | 313.15 K | 323.15 K
in 1,4-dioxane | 0.0227 | 0.0428 | 0.073 | 0.108 | 0.167
in 2-butanone | 0.00843 | 0.0131 | 0.0207 | 0.0327 | 0.0568
in acetone | 0.0138 | 0.0215 | 0.037 | 0.0587 | 0.0959
in acetonitrile | 0.00292 | 0.00491 | 0.00877 | 0.016 | 0.0326
in dichloromethane | 0.00024 | 0.00036 | 0.00052 | 0.0007 | 0.00093
in ethanol | 0.0453 | 0.0626 | 0.0954 | 0.135 | 0.184
in ethyl acetate | 0.00265 | 0.00429 | 0.00641 | 0.00936 | 0.0153
in isobutanol | 0.0229 | 0.0345 | 0.0531 | 0.0779 | 0.114
in isopropanol | 0.029 | 0.0436 | 0.066 | 0.0984 | 0.14
in methanol | 0.0794 | 0.105 | 0.141 | 0.187 | 0.262
in methyl acetate | 0.00352 | 0.00525 | 0.0084 | 0.0139 | 0.0243
in n-butanol | 0.0247 | 0.0393 | 0.0591 | 0.0888 | 0.127
in n-pentanol | 0.0215 | 0.0309 | 0.0465 | 0.0684 | 0.103
in n-propanol | 0.031 | 0.0511 | 0.077 | 0.115 | 0.15
in sec-butanol | 0.0236 | 0.0375 | 0.0568 | 0.0839 | 0.121
in water | 0.00589 | 0.008 | 0.0136 | 0.0231 | 0.0543
